This is an account of results in article PMC7144554, “2-(Arylamino)-6-(trifluoromethyl)nicotinic Acid Derivatives: New HIV-1 RT Dual Inhibitors Active on Viral Replication” (Molecules, 2020).

Several values for one entry are separate records, joined by “and”; a condition that tells them apart may be missing. Equal values may be shown once. Read-outs that look alike come from different tables or passages of the source.

Data set [1] has as its target T1, V108A RT RNase H function (Human immunodeficiency virus type 1 group M subtype B, UniProt P04585, V695A).
T1 construct: Amino acid substitutions were introduced into the p66 HIV-1 RT subunit coded in a p6HRT-prot plasmid; made in house; host or cells: Escherichia coli strain M15
Put plainly: RNase H activity of mutated RT V108A. The class given is biochemical, HIV-1. How it is done:
(§1) Amino acid substitutions were introduced into the p66 HIV-1 RT subunit coded in a p6HRT-prot plasmid using the QuikChange protocol (Agilent Technologies Inc., Santa Clara, CA).
(§2) The RT-associated RNase H activity of wt and mutated HIV RTs was measured as described, in 100 µL reaction volume containing 50 mM Tris HCl pH 7.8, 6 mM MgCl2, 1 mM dithiothreitol (DTT), 80 mM KCl, hybrid RNA/DNA (5’-[…]-3’-Fluorescein, 5’-[…]-3’-Dabcyl), and different amounts of enzymes according to a linear range of dose-response curve—20 ng of wt RT; 50 ng K103N RT; 100 ng V108A RT; 4 ng Y181C RT; 100 ng Q475A RT; 100 ng A502F RT. The reaction mixture was incubated for 1 h at 37 °C, the reaction was stopped by addition of EDTA and products were measured with a Victor 3 (Perkin) at 490/528 nm.

For data set [2], the target named is T2, A502F RT RNase H function (Human immunodeficiency virus type 1 group M subtype B, UniProt P04585, A1089F).
T2 construct: Amino acid substitutions were introduced into the p66 HIV-1 RT subunit coded in a p6HRT-prot plasmid; made in house; host or cells: Escherichia coli strain M15
The experiment in a line: RNase H activity of mutated RT A502F. The settings on record: for RNase H Fold: vs wt RT. The class given is biochemical, HIV-1. How it is done: as §1, §2

In data set [3] the target is T3, HIV-1 RT-associated RNase H activity (wt RT) (Human immunodeficiency virus type 1 group M subtype B, UniProt P04585).
T3 construct: RT is a heterodimeric (p66/p51) multifunctional enzyme; made in house; host or cells: Escherichia coli strain M15
The experiment in a line: HIV-1 DNA polymerase-independent RNase H activity, wt RT. The class given is biochemical. How it is done: p6HRT-prot vector was kindly provided by Dr. Stuart Le Grice Laboratory. Heterodimeric RT was expressed essentially as described. Briefly, Escherichia coli strain M15 containing the p6HRT-prot vector were grown up to an OD600 of 0.7 and induced with isopropyl β-D-1-thiogalactopyranoside (IPTG) 1.7 mM for 4 h. Cell pellets were resuspended in Lysis buffer (50 mM sodium phosphate pH 7.8, 0.5 mg/mL lysozyme), incubated on ice for 20 min, added 0.3 M final NaCl, sonicated and centrifuged at 30,000× g for 1 h. The supernatant was loaded into a Ni^2+-sepharose column pre-equilibrated with loading buffer (50 mM sodium phosphate pH 7.8, 0.3 M NaCl, 10% glycerol, 10 mM imidazole) and washed thoroughly with wash buffer (50 mM sodium phosphate pH 6.0, 0.3 M NaCl, 10% glycerol, 80 mM imidazole). RT was gradient-eluted with elute buffer (wash buffer with 0.5 M imidazole). Fractions were collected, protein purity was checked by SDS-PAGE and found to be higher than 90%. RT containing fractions were pooled and diluted 1:1 with dilute buffer (50 mM sodium phosphate pH 7.0, 10% glycerol) then loaded into a Hi-trap Heparine HP GE (Healthcare Lifescience) pre-equilibrated with 10-column volume of loading buffer 2 (50 mM sodium phosphate pH 7.0, 10% glycerol, 150 mM NaCl). Column was then washed with loading buffer 2 and RT was gradient-eluted with elute buffer 2 (50 mM sodium phosphate pH 7.0, 10% glycerol, 150 mM NaCl). Fractions were collected, protein was dialyzed and stored in buffer containing 50 mM Tris HCl pH 7.0, 25 mM NaCl, 1 mM EDTA, 50% glycerol. Catalytic activities and protein concentration were determined. Enzyme-containing fractions were pooled and aliquots were stored at −80 °C.
as §2

The target of data set [4] is T4, Q475A RT RNase H function (Human immunodeficiency virus type 1 group M subtype B, UniProt P04585, Q1062A).
T4 construct: Amino acid substitutions were introduced into the p66 HIV-1 RT subunit coded in a p6HRT-prot plasmid; made in house; host or cells: Escherichia coli strain M15
Put plainly: RNase H activity of mutated RT Q475A. The class given is biochemical, HIV-1. The settings on record: for RNase H Fold: vs wt RT. How it is done: as §1, §2

In a further data set the target is T5, Q475A RT RDDP activity (Human immunodeficiency virus type 1 group M subtype B, UniProt P04585, Q1062A).
T5 construct: Amino acid substitutions were introduced into the p66 HIV-1 RT subunit coded in a p6HRT-prot plasmid; made in house; host or cells: Escherichia coli strain M15
Put plainly: biochemical. Also noted: species or system HIV-1.

Data set [5] deals with T6, K103N RT RNase H function (Human immunodeficiency virus type 1 group M subtype B, UniProt P04585, K690N).
T6 construct: Amino acid substitutions were introduced into the p66 HIV-1 RT subunit coded in a p6HRT-prot plasmid; made in house; host or cells: Escherichia coli strain M15
Put plainly: RNase H activity of mutated RT K103N. The class given is biochemical, HIV-1. How it is done:
as §1, §2

For a further data set, the target named is T7, V108A RT RDDP activity (Human immunodeficiency virus type 1 group M subtype B, UniProt P04585, V695A).
T7 construct: Amino acid substitutions were introduced into the p66 HIV-1 RT subunit coded in a p6HRT-prot plasmid; made in house; host or cells: Escherichia coli strain M15
The experiment in a line: biochemical. Set-up: species or system HIV-1.

For the next data set, the target named is T8, Y181C RT RDDP activity (Human immunodeficiency virus type 1 group M subtype B, UniProt P04585, Y768C).
T8 construct: Amino acid substitutions were introduced into the p66 HIV-1 RT subunit coded in a p6HRT-prot plasmid; made in house; host or cells: Escherichia coli strain M15
Put plainly: biochemical. Also noted: species or system HIV-1.

For a further data set, the target named is T9, K103N RT RDDP activity (Human immunodeficiency virus type 1 group M subtype B, UniProt P04585, K690N).
T9 construct: Amino acid substitutions were introduced into the p66 HIV-1 RT subunit coded in a p6HRT-prot plasmid; made in house; host or cells: Escherichia coli strain M15
Put plainly: biochemical. Set-up: species or system HIV-1.

The test system of a further data set is HIV-1 IIIB strain. The experiment in a line: Antiviral assay, HIV-1 replication in TZMbl cells (luciferase). The class given is cell-based. The settings on record: Human immunodeficiency virus 1, TZM-bl; TZMbl cells, HIV-1 IIIB; read-out: HIV-1 EC50 TZMbl Cells.
Data set [6] addresses T10, Y181C RT RNase H function (Human immunodeficiency virus type 1 group M subtype B, UniProt P04585, Y768C).
T10 construct: Amino acid substitutions were introduced into the p66 HIV-1 RT subunit coded in a p6HRT-prot plasmid; made in house; host or cells: Escherichia coli strain M15
The experiment in a line: RNase H activity of mutated RT Y181C. The class given is biochemical, HIV-1. How it is done:
as §1, §2

For a further data set, the target named is T11, A502F RT RDDP activity (Human immunodeficiency virus type 1 group M subtype B, UniProt P04585, A1089F).
T11 construct: Amino acid substitutions were introduced into the p66 HIV-1 RT subunit coded in a p6HRT-prot plasmid; made in house; host or cells: Escherichia coli strain M15
The experiment in a line: biochemical. Also noted: species or system HIV-1.

The subject of the next data set is CEM cells. The experiment in a line: Cell viability in CEM cells (MTT). The class given is cell-based. The settings on record: highest concentration tested. How it is done:
(§3) Drug-mediated inhibition of virus-induced cytotoxicity was assayed in TZM-BL cells. Triplicate wells of 96-well plates containing 1 × 10^4 TZMbl cells were infected with HIV-1 IIIB strain at a multiplicity of infection of 0.1. Serial dilutions of drugs were added immediately after infection. Luciferase activity was measured as reported. Two days after infection, the culture medium was removed from each well and 100 µl of Bright Glo reagent (Promega, Luis Obispo, CA) was added to the cells for measurement of luminescence using a Victor 2 luminometer (Perkin). The 50% effective concentration (EC50) was defined as the concentration that caused a 50% reduction of luciferase activity (relative light units) compared to virus control wells. Cell viability in CEM cells was quantified 5 days after infection with the MTT-dye reduction method.

Data set [7] in a line: Cell viability in CEM cells (MTT). The settings on record: human, MTT, 5 days. The class given is cell-based. How it is done: as §3
Data set [8] concerns the target T12, HIV-1 RT-associated RDDP activity (wt RT) (Human immunodeficiency virus type 1 group M subtype B, UniProt P04585).
T12 construct: RT is a heterodimeric (p66/p51) multifunctional enzyme; made in house; host or cells: Escherichia coli strain M15
The experiment in a line: biochemical.
Description: p6HRT-prot vector was kindly provided by Dr. Stuart Le Grice Laboratory. Heterodimeric RT was expressed essentially as described [42]. Briefly, Escherichia coli strain M15 containing the p6HRT-prot vector were grown up to an OD600 of 0.7 and induced with isopropyl β-D-1-thiogalactopyranoside (IPTG) 1.7 mM for 4 h. Cell pellets were resuspended in Lysis buffer (50 mM sodium phosphate pH 7.8, 0.5 mg/mL lysozyme), incubated on ice for 20 min, added 0.3 M final NaCl, sonicated and centrifuged at 30,000× g for 1 h. The supernatant was loaded into a Ni^2+-sepharose column pre-equilibrated with loading buffer (50 mM sodium phosphate pH 7.8, 0.3 M NaCl, 10% glycerol, 10 mM imidazole) and washed thoroughly with wash buffer (50 mM sodium phosphate pH 6.0, 0.3 M NaCl, 10% glycerol, 80 mM imidazole). RT was gradient-eluted with elute buffer (wash buffer with 0.5 M imidazole). Fractions were collected, protein purity was checked by SDS-PAGE and found to be higher than 90%. […] Catalytic activities and protein concentration were determined. […]
The HIV-1 RT-associated RDDP activity was measured as described [66]. […]

Another data set relates to TZMbl cells. Put plainly: Cytotoxicity in TZMbl cells. The class given is cell-based. The settings on record: highest concentration tested.
Data set [9] is described as follows: Cytotoxicity in TZMbl cells. The settings on record: human. The class given is cell-based.

Description for A502F RT RDDP activity: (§4) The HIV-1 RT-associated RDDP activity was measured as described [66]. Briefly, in 25 µL volume containing 60 mM Tris-HCl pH 8.1, 8 mM MgCl2, 60 mM KCl, 13 mM DTT, poly(A)-oligo(dT), 100 µM dTTP, and 6 ng wt RT (or 21 ng K103N RT; 30 ng V108A RT; 1,5 ng Y181C RT; 21 ng Q475A RT; 15 ng A502F RT).
Description for HIV-1 IIIB strain: Drug-mediated inhibition of virus-induced cytotoxicity was assayed in TZM-BL cells. […] Serial dilutions of drugs were added immediately after infection. Luciferase activity was measured as reported [67]. Two days after infection, the culture medium was removed from each well and 100 µl of Bright Glo reagent (Promega, Luis Obispo, CA) was added to the cells for measurement of luminescence using a Victor 2 luminometer (Perkin). […] Cell viability in CEM cells was quantified 5 days after infection with the MTT-dye reduction method.
Description for K103N RT RDDP activity: as §4
Description for Q475A RT RDDP activity: as §4
Description for V108A RT RDDP activity: as §4
Description for Y181C RT RDDP activity: as §4

Regarding `CC(C)c1ccc(O)c(=O)c(O)c1` [BTP, beta-Thujaplicinol, reference compound], the half-inhibitory concentration (IC50) in data set [1] (read-out: RNase H IC50, V108A RT) was 340 ± 400 nM; in [2] (A502F RT, read-out: RNase H IC50), 170 ± 30 nM; in data set [4] it was 190 ± 30 nM. Further, the “RNase H Fold” value is on record as 0.9 in [2] (A502F RT), 1 in data set [3] (WT RT) and 1.0 in data set [4] (Q475A RT).
Turning to `COc1cc(OC)cc(OC(=O)c2ccc(C(F)(F)F)nc2Nc2cc(Cl)ccc2C)c1` [Compound 21], the IC50 against Q475A RT RDDP activity is 17 ± 4.5 µM; in data set [1] it was more than 100000 nM; in data set [2] it was more than 100000 nM; in data set [3] (RNase H IC50, wt RT), 14 µM and 14.7 µM; in data set [5], 53.9 ± 2.2 µM; on V108A RT RDDP activity it was 82.8 ± 6.3 µM. Besides, the half-maximal inhibitory concentration (IC50) at Y181C RT RDDP activity is 22.5 ± 5.3 µM; on K103N RT RDDP activity it was 16.5 ± 4.8 µM; in data set [6] it was 11.9 ± 1.4 µM; on A502F RT RDDP activity, 8 ± 0.7 µM; in data set [8], 16.1 ± 1.2 µM; in data set [4], more than 100000 nM. Further, the “RNase H IC50” value in data set [1] (V108A RT), in data set [2] (A502F RT) and in data set [4] (Q475A RT) was “completely lost its RNase H inhibitory efficacy” in each case. Further, the “RNase H Fold” value in [2] (A502F RT) and in data set [4] (Q475A RT) was more than 6.8 throughout. Besides, the EC50 with HIV-1 IIIB strain was 5 ± 0.8 µM. For the same molecule, the “RDDP Fold” value at A502F RT RDDP activity (A502F RT, IC50 mutated RT / IC50 wt RT) came to 0.5. Moreover, in the data set on CEM cells, the “percentage of cells viability in presence of the highest concentration of inhibitor tested, CEM cells” value is given as 100%. This molecule also came in with a cytotoxic concentration (CC50) at 5 days in data set [7] of more than 50 µM. In addition, the “percentage of cells viability in presence of the highest concentration of inhibitor tested, TZMbl” value with TZMbl cells is given as 59%. Besides, in [9], the half-maximal cytotoxic concentration (CC50) was more than 50 µM.
